Key:
[1] = system: carbapenem-resistant A. baumannii (CRAB) isolates (n = 67); experiment: MIC, broth microdilution (EUCAST), carbapenem-resistant A. baumannii isolates; type: cell-based, Acinetobacter baumannii; conditions: for MIC: Acinetobacter baumannii
Excerpt: The bacterial strains used in this study comprised 208 clinical isolates from the Spanish National Acinetobacter spp. 2020 Multicenter Collection, which was previously characterized in detail by our research group, including whole-genome sequencing, phylogenetics studies, clonal dynamics, and resistance mechanisms ([2], [29]). Additionally, a collection of A. baumannii ATCC 17978 transformants coding the blaOXA-23, blaOXA-24/40, blaOXA-51, blaOXA-58, blaOXA-143, and blaOXA-201 genes, previously constructed and described by our group ([30]), was used to determine the activity of enmetazobactam against strains carrying the main CHDLs of A. baumannii.
The antimicrobial susceptibility of the 208 Acinetobacter spp. isolates was assessed using the broth microdilution method, as described in the European Committee on Antimicrobial Susceptibility Testing (EUCAST) v.15 guidelines (http://www.eucast.org/clinical_breakpoints). […] MICs for enmetazobactam alone were assessed as well. […] Subsequently, MIC testing was also conducted with a collection of A. baumannii ATCC 17978 transformants expressing clinically relevant OXA-like carbapenemase genes.
The A. baumannii ATCC 19606 strain was used as the reference strain in all susceptibility experiments, in duplicate assays. Antibiotics were purchased from Sigma-Aldrich, except enmetazobactam and durlobactam, which were obtained from Advanz Pharma and MedChemExpress, respectively.

[2] = system: A. baumannii ATCC 19606 cells; experiment: Cell morphology assay, bright-field microscopy; type: cell-based, Acinetobacter baumannii
Method: In order to confirm the involvement of PBPs as targets of enmetazobactam, cell morphology assays involving exposure to enmetazobactam and sulbactam were performed following the methodology described in Supplementary materials and methods.
To confirm the involvement of PBPs as targets of enmetazobactam, the cellular morphology of A. baumannii ATCC 19606 reference strain was analyzed after exposure to the compound at different concentrations. Bright-field microscopy was used to monitor the cell morphology. […] For microscopic visualization, aliquots of each sample were obtained, stained with crystal violet solution and observed using an Olympus BX61 microscope (Olympus).
Changes in cell morphology were determined on the basis of alterations in septal integrity, abnormal elongation, spheroplast formation and filamentation, patterns previously associated with the selective inhibition of PBP1, PBP2 and PBP3 in Gram-negative bacilli. Specifically, PBP1 inhibition has been linked to cell lysis, PBP2 inhibition has been linked to spherification, and PBP3 inhibition to defective cell division and filament formation (1, 2). The results were qualitatively compared across different treatments to infer the potential selectivity of enmetazobactam for specific PBPs.

[3] = CHDLs-producing A. baumannii isolates (n = 67), durlobactam series, DUR fixed 4 mg/L in combinations

C[n+]1ccn(C[C@@]2(C)[C@H](C(=O)[O-])N3C(=O)C[C@H]3S2(=O)=O)n1 [enmetazobactam]
MIC ([1]; isolate Ab184, ST 2, ADC-30, OXA-66, OXA-23, ETZ fixed 8 mg/L in combinations): 32 µg/mL
MIC ([1]; isolate Ab186, ST 2, ADC-30, OXA-66, OXA-23, DUR fixed at 4 mg/L in combinations): 32 µg/mL
MIC ([1]; isolate Ab186, ST 2, ADC-30, OXA-66, OXA-23, ETZ fixed 8 mg/L in combinations): 32 µg/mL
MIC ([1]; isolate Ab191, ST 2, ADC-30, OXA-66, OXA-23, DUR fixed at 4 mg/L in combinations): 64 µg/mL
MIC ([1]; isolate Ab191, ST 2, ADC-30, OXA-66, OXA-23, ETZ fixed 8 mg/L in combinations): 64 µg/mL
MIC ([1]; isolate Ab192, ST 2, ADC-30, OXA-66, OXA-23, DUR fixed at 4 mg/L in combinations): 32 µg/mL
MIC ([1]; isolate Ab192, ST 2, ADC-30, OXA-66, OXA-23, ETZ fixed 8 mg/L in combinations): 64 µg/mL
MIC ([1]; isolate Ab194, ST 2, ADC-30, OXA-66, OXA-23, DUR fixed at 4 mg/L in combinations): 64 µg/mL
MIC ([1]; isolate Ab194, ST 2, ADC-30, OXA-66, OXA-23, ETZ fixed 8 mg/L in combinations): 64 µg/mL
MIC ([1]; isolate Ab199, ST 2, ADC-30, OXA-66, OXA-23, DUR fixed at 4 mg/L in combinations): 32 µg/mL
MIC ([1]; isolate Ab199, ST 2, ADC-30, OXA-66, OXA-23, ETZ fixed 8 mg/L in combinations): 32 µg/mL
MIC ([1]; isolate Ab201, ST 2, ADC-30, OXA-66, OXA-23, DUR fixed at 4 mg/L in combinations): 64 µg/mL
MIC ([1]; isolate Ab201, ST 2, ADC-30, OXA-66, OXA-23, ETZ fixed 8 mg/L in combinations): 64 µg/mL
MIC ([1]; isolate Ab204, ST 2, ADC-30, OXA-66, OXA-23, DUR fixed at 4 mg/L in combinations): 32 µg/mL
MIC ([1]; isolate Ab204, ST 2, ADC-30, OXA-66, OXA-23, ETZ fixed 8 mg/L in combinations): 32 µg/mL
MIC50 [1, 3]: 64 µg/mL
MIC90 [1, 3]: 64 µg/mL
MIC distribution 0.12 ([1]; cumulative % of CHDLs-producing A. baumannii isolates (n = 67) at MIC 0.12 mg/L, DUR fixed 4 mg/L in combinations): 0.0%
MIC distribution 0.25 ([1]; cumulative % of CHDLs-producing A. baumannii isolates (n = 67) at MIC 0.25 mg/L, DUR fixed 4 mg/L in combinations): 0.0%
MIC distribution 0.5 ([1]; cumulative % of CHDLs-producing A. baumannii isolates (n = 67) at MIC 0.5 mg/L, DUR fixed 4 mg/L in combinations): 0.0%
MIC distribution 1 ([1]; cumulative % of CHDLs-producing A. baumannii isolates (n = 67) at MIC 1 mg/L, DUR fixed 4 mg/L in combinations): 0.0%
MIC distribution 2 ([1]; cumulative % of CHDLs-producing A. baumannii isolates (n = 67) at MIC 2 mg/L, DUR fixed 4 mg/L in combinations): 0.0%
MIC distribution 4 ([1]; cumulative % of CHDLs-producing A. baumannii isolates (n = 67) at MIC 4 mg/L, DUR fixed 4 mg/L in combinations): 10.4%
MIC distribution 8 ([1]; cumulative % of CHDLs-producing A. baumannii isolates (n = 67) at MIC 8 mg/L, DUR fixed 4 mg/L in combinations): 22.4%
MIC distribution 16 ([1]; cumulative % of CHDLs-producing A. baumannii isolates (n = 67) at MIC 16 mg/L, DUR fixed 4 mg/L in combinations): 25.4%
MIC distribution 32 ([1]; cumulative % of CHDLs-producing A. baumannii isolates (n = 67) at MIC 32 mg/L, DUR fixed 4 mg/L in combinations): 46.3%
MIC distribution ≤0.06 ([1]; cumulative % of CHDLs-producing A. baumannii isolates (n = 67) at MIC ≤0.06 mg/L, DUR fixed 4 mg/L in combinations): 0.0%
MIC distribution ≥64 ([1]; cumulative % of CHDLs-producing A. baumannii isolates (n = 67) at MIC ≥64 mg/L, DUR fixed 4 mg/L in combinations): 100%
MIC distribution 0.12 ([1]; cumulative share of CRAB isolates (n = 67) at MIC 0.12 mg/L, ETZ fixed 8 mg/L in combinations): 0
MIC distribution 0.25 ([1]; cumulative share of CRAB isolates (n = 67) at MIC 0.25 mg/L, ETZ fixed 8 mg/L in combinations): 0
MIC distribution 0.5 ([1]; cumulative share of CRAB isolates (n = 67) at MIC 0.5 mg/L, ETZ fixed 8 mg/L in combinations): 0
MIC distribution 1 ([1]; cumulative share of CRAB isolates (n = 67) at MIC 1 mg/L, ETZ fixed 8 mg/L in combinations): 0
MIC distribution 2 ([1]; cumulative share of CRAB isolates (n = 67) at MIC 2 mg/L, ETZ fixed 8 mg/L in combinations): 0
MIC distribution 4 ([1]; cumulative share of CRAB isolates (n = 67) at MIC 4 mg/L, ETZ fixed 8 mg/L in combinations): 10.4
MIC distribution 8 ([1]; cumulative share of CRAB isolates (n = 67) at MIC 8 mg/L, ETZ fixed 8 mg/L in combinations): 19.4
MIC distribution 16 ([1]; cumulative share of CRAB isolates (n = 67) at MIC 16 mg/L, ETZ fixed 8 mg/L in combinations): 25.4
MIC distribution 32 ([1]; cumulative share of CRAB isolates (n = 67) at MIC 32 mg/L, ETZ fixed 8 mg/L in combinations): 41.8
MIC distribution 64 ([1]; cumulative share of CRAB isolates (n = 67) at MIC 64 mg/L, ETZ fixed 8 mg/L in combinations): 100
MIC distribution ≤0.06 ([1]; cumulative share of CRAB isolates (n = 67) at MIC ≤0.06 mg/L, ETZ fixed 8 mg/L in combinations): 0
cell morphology ([2]; A. baumannii ATCC 19606, overnight exposure at 1× MIC): elongated filaments
cell morphology ([2]; A. baumannii ATCC 19606, overnight exposure at 2× MIC): the filaments shortened in length

— publication PMC12888861, “Antibacterial activity of enmetazobactam against Acinetobacter spp.: a molecular dissection of mechanism of action and resistance determinants” (Antimicrobial Agents and Chemotherapy, 2025)
